From ChEMBL document CHEMBL4428061, “Effects of 5-O-Ribosylation of Aminoglycosides on Antimicrobial Activity and Selective Perturbation of Bacterial Translation” (J Med Chem, 2016)
pIC50: −log10 of the molar value. Converted amounts (≈) assume the structure as drawn.

Experiments:
[1] = test system: Pseudomonas aeruginosa; test: Antimicrobial activity against Pseudomonas aeruginosa ATCC 47085 measured after 24 hrs by double-dilution method; assay type: functional; conditions: ATCC 47085, 24 h
[2] = test system: Pseudomonas aeruginosa; test: Antimicrobial activity against Pseudomonas aeruginosa ATCC 27853 measured after 24 hrs by double-dilution method; assay type: functional; conditions: ATCC 27853, 24 h
[3] = test system: Haemophilus influenzae; test: Antimicrobial activity against Haemophilus influenzae ATCC 49247 measured after 24 hrs by double-dilution method; assay type: functional; conditions: ATCC 49247, 24 h
[4] = test system: Haemophilus influenzae; test: Antimicrobial activity against Haemophilus influenzae ATCC 10211 measured after 24 hrs by double-dilution method; assay type: functional; conditions: ATCC 10211, 24 h
[5] = test system: Klebsiella pneumoniae; test: Antimicrobial activity against Klebsiella pneumoniae ATCC 13883 measured after 24 hrs by double-dilution method; assay type: functional; conditions: ATCC 13883, 24 h
[6] = test system: Klebsiella pneumoniae; test: Antimicrobial activity against Klebsiella pneumoniae ATCC 10031 measured after 24 hrs by double-dilution method; assay type: functional; conditions: ATCC 10031, 24 h
[7] = test system: Escherichia coli; test: Antimicrobial activity against Escherichia coli ATCC 25922 measured after 24 hrs by double-dilution method; assay type: functional; conditions: ATCC 25922, 24 h
[8] = test system: Acinetobacter baumannii; test: Antimicrobial activity against Acinetobacter baumannii ATCC 19606 measured after 24 hrs by double-dilution method; assay type: functional; conditions: ATCC 19606 = CIP 70.34 = JCM 6841, 24 h
[9] = test system: Burkholderia cepacia; test: Antimicrobial activity against aminoglycoside-resistant Burkholderia cepacia ATCC 25416 measured after 24 hrs by double-dilution method; assay type: functional; conditions: ATCC 25416, 24 h
[10] = test system: Escherichia coli; test: Antimicrobial activity against aminoglycoside-resistant Escherichia coli ATCC BAA-2452 measured after 24 hrs by double-dilution method; assay type: functional; conditions: ATCC BAA-2452, 24 h
[11] = test system: Klebsiella pneumoniae; test: Antimicrobial activity against aminoglycoside-resistant Klebsiella pneumoniae ATCC BAA-2470 measured after 24 hrs by double-dilution method; assay type: functional; conditions: ATCC BAA-2470, 24 h
[12] = test system: Ribosomal RNA A-site; test: Binding affinity to 16S rRNA A-site in Escherichia coli S30 extract assessed as inhibition of translation measured after 30 mins by coupled transcription/translation-based luciferase reporter gene assay; assay type: nucleic-acid assay
[13] = Inhibition of cytosolic eukaryotic translation in rabbit reticulocyte S30 extract measured after 60 mins by coupled transcription/translation-based luciferase reporter gene assay; parameters: species or system Oryctolagus cuniculus
[14] = test system: cytosolic eukaryotic translation versus 16S rRNA A-site; test: Selectivity ratio, ratio of IC50 for cytosolic eukaryotic translation in rabbit reticulocyte S30 extract to IC50 for 16S rRNA A-site in Escherichia coli S30 extract; assay type: toxicity; conditions: read-out: Ratio IC50
[15] = Acute toxicity in iv dosed rat; assay type: organism-based; conditions: in vivo

| Structure (SMILES) | MIC [1] | MIC [2] | MIC [3] | MIC [4] | MIC [5] | MIC [6] | MIC [7] | MIC [8] | MIC [9] | MIC [10] | MIC [11] | pIC50 [12] | pIC50 [13] | selectivity ratio [14] | LD50 [15] |
| --- | --- | --- | --- | --- | --- | --- | --- | --- | --- | --- | --- | --- | --- | --- | --- |
| NC[C@H]1O[C@H](O[C@H]2[C@H](O[C@@H]3O[C@H](CO)[C@@H](O)[C@H]3O)[C@@H](O[C@H]3O[C@H](CO)[C@@H](O)[C@H](N)[C@H]3O)[C@H](N)C[C@@H]2N)[C@H](N)C[C@@H]1O | 2 µg/mL (≈ 3.34 µM) | 4 µg/mL (≈ 6.67 µM) | 8 µg/mL (≈ 13.3 µM) | 8 µg/mL (≈ 13.3 µM) | 2 µg/mL (≈ 3.34 µM) | 2 µg/mL (≈ 3.34 µM) | 4 µg/mL (≈ 6.67 µM) | 32 µg/mL (≈ 53.4 µM) | > 32 µg/mL | > 32 µg/mL | > 32 µg/mL | 7.10 | 4.31 | 614 |  |
| NC[C@H]1O[C@H](O[C@H]2[C@H](O[C@@H]3O[C@H](CO)[C@@H](O)[C@H]3O)[C@@H](O[C@H]3O[C@H](CO)[C@@H](O)[C@H](N)[C@H]3O)[C@H](N)C[C@@H]2N)[C@H](N)[C@@H](O)[C@@H]1O | > 32 µg/mL | > 32 µg/mL | 8 µg/mL (≈ 13 µM) | 8 µg/mL (≈ 13 µM) | 4 µg/mL (≈ 6.5 µM) | 4 µg/mL (≈ 6.5 µM) | 4 µg/mL (≈ 6.5 µM) | > 32 µg/mL | > 32 µg/mL | > 32 µg/mL | > 32 µg/mL | 7.52 | 4.36 | 1460 |  |
| NCC[C@H](O)C(=O)N[C@@H]1C[C@H](N)[C@@H](O[C@H]2O[C@H](CN)[C@@H](O)[C@H](O)[C@H]2O)[C@H](O[C@@H]2O[C@H](CO)[C@@H](O)[C@H]2O)[C@H]1O[C@H]1O[C@H](CO)[C@@H](O)[C@H](N)[C@H]1O | > 32 µg/mL | > 32 µg/mL | > 32 µg/mL | > 32 µg/mL | > 32 µg/mL | > 32 µg/mL | > 32 µg/mL | > 32 µg/mL | > 32 µg/mL | > 32 µg/mL | > 32 µg/mL | 5.19 | 3.71 | 30 |  |
| NC[C@H]1O[C@H](O[C@H]2[C@H](O[C@@H]3O[C@H](CO)[C@@H](O)[C@H]3O)[C@@H](O)[C@H](N)C[C@@H]2N)[C@H](N)C[C@@H]1O | 4 µg/mL (≈ 9.12 µM) | 4 µg/mL (≈ 9.12 µM) | 4 µg/mL (≈ 9.12 µM) | 4 µg/mL (≈ 9.12 µM) | 8 µg/mL (≈ 18.2 µM) | 4 µg/mL (≈ 9.12 µM) | 2 µg/mL (≈ 4.56 µM) | 32 µg/mL (≈ 73 µM) | > 32 µg/mL | > 32 µg/mL | > 32 µg/mL | 6.96 | 3.87 | 1230 |  |
| NC[C@H]1O[C@H](O[C@H]2[C@H](O)[C@@H](O)[C@H](N)C[C@@H]2N)[C@H](N)C[C@@H]1O | > 32 µg/mL | > 32 µg/mL | > 32 µg/mL | > 32 µg/mL | > 32 µg/mL | > 32 µg/mL | 16 µg/mL (≈ 52.2 µM) | > 32 µg/mL | > 32 µg/mL | > 32 µg/mL | > 32 µg/mL | 6.37 | 3.92 | 282 |  |
| NCC[C@H](O)C(=O)N[C@@H]1C[C@H](N)[C@@H](O[C@H]2O[C@H](CN)[C@@H](O)[C@H](O)[C@H]2O)[C@H](O)[C@H]1O[C@H]1O[C@H](CO)[C@@H](O)[C@H](N)[C@H]1O [AMIKACIN] | 4 µg/mL (≈ 6.83 µM) | 8 µg/mL (≈ 13.7 µM) | 32 µg/mL (≈ 54.6 µM) | 32 µg/mL (≈ 54.6 µM) | 4 µg/mL (≈ 6.83 µM) | 4 µg/mL (≈ 6.83 µM) | 2 µg/mL (≈ 3.42 µM) | 4 µg/mL (≈ 6.83 µM) | > 32 µg/mL | > 32 µg/mL | > 32 µg/mL | 7.15 | 4.19 | 923 |  |
| NC[C@H]1O[C@H](O[C@H]2[C@H](O)[C@@H](O[C@H]3O[C@H](CO)[C@@H](O)[C@H](N)[C@H]3O)[C@H](N)C[C@@H]2N)[C@H](N)[C@@H](O)[C@@H]1O [BEKANAMYCIN] | > 32 µg/mL | > 32 µg/mL | 4 µg/mL (≈ 8.27 µM) | 2 µg/mL (≈ 4.14 µM) | 1 µg/mL (≈ 2.07 µM) | 1 µg/mL (≈ 2.07 µM) | 4 µg/mL (≈ 8.27 µM) | 4 µg/mL (≈ 8.27 µM) | > 32 µg/mL | > 32 µg/mL | > 32 µg/mL | 7.40 | 4.54 | 722 |  |
| NC[C@H]1O[C@H](O[C@H]2[C@H](O)[C@@H](O[C@H]3O[C@H](CO)[C@@H](O)[C@H](N)[C@H]3O)[C@H](N)C[C@@H]2N)[C@H](O)[C@@H](O)[C@@H]1O [KANAMYCIN] | > 32 µg/mL | > 32 µg/mL | 8 µg/mL (≈ 16.5 µM) | 8 µg/mL (≈ 16.5 µM) | 4 µg/mL (≈ 8.26 µM) | 4 µg/mL (≈ 8.26 µM) | 4 µg/mL (≈ 8.26 µM) | 8 µg/mL (≈ 16.5 µM) | > 32 µg/mL | > 32 µg/mL | > 32 µg/mL | 7.00 | 3.96 | 1110 |  |
| NC[C@H]1O[C@H](O[C@H]2[C@H](O)[C@@H](O)[C@H](N)C[C@@H]2N)[C@H](N)[C@@H](O)[C@@H]1O [NEAMINE] | > 32 µg/mL | > 32 µg/mL | 32 µg/mL (≈ 99.3 µM) | 32 µg/mL (≈ 99.3 µM) | 16 µg/mL (≈ 49.6 µM) | 16 µg/mL (≈ 49.6 µM) | 16 µg/mL (≈ 49.6 µM) | > 32 µg/mL | > 32 µg/mL | > 32 µg/mL | > 32 µg/mL | 6.34 | 4.00 | 215 | 121 to 129 mg/kg |
| NC[C@H]1O[C@H](O[C@H]2[C@H](O[C@@H]3O[C@H](CO)[C@@H](O)[C@H]3O)[C@@H](O)[C@H](N)C[C@@H]2N)[C@H](N)[C@@H](O)[C@@H]1O [RIBOSTAMYCIN] | > 32 µg/mL | > 32 µg/mL | 8 µg/mL (≈ 17.6 µM) | 8 µg/mL (≈ 17.6 µM) | 8 µg/mL (≈ 17.6 µM) | 8 µg/mL (≈ 17.6 µM) | 4 µg/mL (≈ 8.8 µM) | 16 µg/mL (≈ 35.2 µM) | > 32 µg/mL | > 32 µg/mL | > 32 µg/mL | 7.05 | 3.94 | 1290 |  |
| NC[C@H]1O[C@H](O[C@H]2[C@H](O)[C@@H](O[C@H]3O[C@H](CO)[C@@H](O)[C@H](N)[C@H]3O)[C@H](N)C[C@@H]2N)[C@H](N)C[C@@H]1O [TOBRAMYCIN] | 1 µg/mL (≈ 2.14 µM) | 1 µg/mL (≈ 2.14 µM) | 4 µg/mL (≈ 8.56 µM) | 4 µg/mL (≈ 8.56 µM) | 1 µg/mL (≈ 2.14 µM) | 1 µg/mL (≈ 2.14 µM) | 2 µg/mL (≈ 4.28 µM) | 2 µg/mL (≈ 4.28 µM) | > 32 µg/mL | > 32 µg/mL | > 32 µg/mL | 7.15 | 4.37 | 605 |  |
